Experiments:
normal rat = assay: Effect on the urine glucose excretion of the normal rat; type: in vivo; settings: normal SD rats, single intragastric oral administration, then glucose 2 g/kg; in comparison with the blank control, P<0.01, dosage-dependent
Text: The drug effect of promoting the urine glucose excretion can be determined according to the conventional assay. One preferable evaluation assay is to detect the effect of the present compound on the urine glucose excretion of the normal rat. The assay can be conducted as follows. Thirty 7-week-old male SD rats (about 200 g) are used in the assay. The tested compound having a purity of 97.8% is formulated with 0.75% CMC-Na. […] The SD rats are acclimatized for 7 days, and then placed in the metabolic cages. The rats are fasted overnight (18 hr) under the free access to water. The basic urine samples are collected, and then thirty rats are weighed and grouped randomly into five groups, six rats per group. The rats are administered with the tested compounds or the positive control drug at low dosage, medium dosage, or high dosage. Fifteen minutes after the administration, the rats are intragastrically administrated with 50% glucose solution (2 g/kg). For ensuring a complete collection of the 24-hour urine, the rats are immediately placed in the metabolic cage after the administration of the tested compounds or the positive control drug. One hour after the administration of the glucose solution, the feeds are supplied to the rats. The urines after the administration of the tested compounds or the positive control drug are collected for 24 hours, and then the urine volumes are calculated and the urine glucose concentrations are detected.
The data are analyzed with the software SPSS 12.0, and the quantized data are expressed in “average±standard deviation”. Multiple sets of data are compared according to the analysis of variance (One-way ANOVA). P<0.05 represents statistical difference.
Thirty 7-week-old male SD rats (about 200 g) were used. The compound of Example 2 having a purity of 97.8% was chose as the present compound and formulated with 0.75% CMC-Na. […] The SD rats were acclimatized for 7 days, and then placed in the metabolic cages. The rats were fasted overnight (18 hr) under the free access to water. The basic urine samples were collected, and then thirty rats were weighed and grouped randomly into five groups, six rats per group.
Fifteen minutes after the administration, the rats were intragastrically administrated with 50% glucose solution (2 g/kg). For ensuring a complete collection of the 24-hour urine, the rats were immediately placed in the metabolic cage after the administration of the tested compounds or the positive control drug. […] The urines after the administration of the tested compounds or the positive control drug were collected for 24 hours, and then the urine volumes were calculated and the urine glucose concentrations were detected.
The data were analyzed with the software SPSS 12.0, and the quantized data were expressed in “average±standard deviation”. […]

human SGLT-2 = target: T1, human SGLT-2 (Homo sapiens, UniProt P31639); assay: Inhibitory effect on human SGLT-2 (14C-methyl-a-D-glucopyranoside uptake in transfected NIH3T3 cells); type: cell-based; settings: NIH3T3 cells expressing human SGLT-2; read-out: IC50 value for inhibiting the human SGLT-2
T1 construct: expressed in transfected cells; host or cells: NIH3T3 cells
T1 sequence (P31639 1-672): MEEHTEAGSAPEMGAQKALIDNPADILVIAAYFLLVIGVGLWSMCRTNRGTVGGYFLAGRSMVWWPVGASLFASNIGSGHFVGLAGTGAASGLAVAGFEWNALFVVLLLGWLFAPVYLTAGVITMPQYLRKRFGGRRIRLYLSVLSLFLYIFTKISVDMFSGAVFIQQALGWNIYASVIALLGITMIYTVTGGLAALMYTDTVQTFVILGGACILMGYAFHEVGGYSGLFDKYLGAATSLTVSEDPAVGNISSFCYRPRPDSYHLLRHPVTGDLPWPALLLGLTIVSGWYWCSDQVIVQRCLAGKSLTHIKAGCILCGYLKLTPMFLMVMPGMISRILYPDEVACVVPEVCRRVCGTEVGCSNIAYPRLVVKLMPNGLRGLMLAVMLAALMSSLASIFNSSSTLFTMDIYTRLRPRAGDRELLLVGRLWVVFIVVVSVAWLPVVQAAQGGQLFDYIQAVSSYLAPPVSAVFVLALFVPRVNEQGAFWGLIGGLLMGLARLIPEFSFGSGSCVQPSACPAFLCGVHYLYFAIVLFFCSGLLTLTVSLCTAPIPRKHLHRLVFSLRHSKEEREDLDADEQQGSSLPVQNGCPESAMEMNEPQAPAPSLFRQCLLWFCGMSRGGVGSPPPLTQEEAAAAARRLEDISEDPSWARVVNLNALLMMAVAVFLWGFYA
Description: (§1) 0.2% gelatin was plated on a 24-well plate, and the plate was kept overnight. The plate was washed with PBS once before use. The NIH3T3 cells expressing human SGLT-2 by transfection were inoculated into the 24-well plate in 100,000 cells per well and 1 mL culture medium per well. On the third day, the culture medium was changed once, and simultaneously sodium butyrate was added thereto with a final concentration of 2 mM. The cells were washed with KRH-Na^+ (500 μL) twice, and then incubated with KRH-Na^+ (500 μL) for 30 minutes. The cells were then treated with 200 μL of KRH-Na^+ containing the compound of Example 2, and 50 μL of an uptake buffer (KRH-Na^+ plus methyl-a-D-[U-14C] glucopyranoside and 1 mM methyl-a-D-glucopyranoside). The cells were washed with 500 μL wash buffer thrice with the operation on ice, and baked overnight. The cells were lysed with 200 μL of 0.25N NaOH at 4° C. for 1 hr. The lysate was removed into an EPPENDORF tube, and centrifuged at 4° C. under 12000 g for 5 mins. […] of supernatant was placed in a 2 mL EPPENDORF tube, and 1.7 mL of scintillation cocktail was added thereto. The mixture was shaked vigorously, and then counted. The inhibition rate of the compound of Example 2 at each of concentrations on the transporting activity was calculated.
(§2) IC50 value could be determined by nonlinear curve fitting of sample activities vs. sample concentrations. […]

human SGLT-1 = target: T2, human SGLT-1 (Homo sapiens, UniProt P13866); assay: Inhibitory effect on human SGLT-1 (14C-methyl-a-D-glucopyranoside uptake in transfected NIH3T3 cells); type: cell-based; settings: NIH3T3 cells expressing human SGLT-1; read-out: IC50 value for inhibiting the human SGLT-1
T2 sequence (P13866 1-664): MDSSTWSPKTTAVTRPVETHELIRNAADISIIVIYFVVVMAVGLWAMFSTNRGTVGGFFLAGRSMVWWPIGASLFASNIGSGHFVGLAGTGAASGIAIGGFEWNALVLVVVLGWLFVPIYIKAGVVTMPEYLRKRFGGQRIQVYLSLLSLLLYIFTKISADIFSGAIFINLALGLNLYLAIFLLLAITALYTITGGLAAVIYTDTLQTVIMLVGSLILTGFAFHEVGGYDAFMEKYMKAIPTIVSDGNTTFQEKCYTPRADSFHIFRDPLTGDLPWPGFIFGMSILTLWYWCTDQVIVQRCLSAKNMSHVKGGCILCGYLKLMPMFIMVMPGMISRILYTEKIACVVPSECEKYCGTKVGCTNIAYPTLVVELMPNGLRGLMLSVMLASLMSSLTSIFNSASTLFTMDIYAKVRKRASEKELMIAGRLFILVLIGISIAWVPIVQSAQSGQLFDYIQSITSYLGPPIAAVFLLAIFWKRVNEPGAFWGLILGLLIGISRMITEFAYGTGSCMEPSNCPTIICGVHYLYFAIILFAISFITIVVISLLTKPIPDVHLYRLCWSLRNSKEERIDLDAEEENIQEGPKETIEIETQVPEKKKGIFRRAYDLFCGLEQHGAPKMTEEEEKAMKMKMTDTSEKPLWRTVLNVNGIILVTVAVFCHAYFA
Description: as §1, with “SGLT-1” for “SGLT-2”
as §2

Compound	24-hour urine glucose masses (normal rat)	24-hour urine volumes (normal rat)	IC50 (human SGLT-2) [µM]	IC50 (human SGLT-1) [µM]
CCOc1ccc(Cc2cc([C@@H]3O[C@H](CO)[C@@H](O)[C@H](O)[C@H]3O)ccc2Cl)cc1 [Dapagliflozin, reference compound]	remarkably increased	remarkably increased		
CS[C@H]1O[C@@H](c2ccc(C)c(Cc3ccc(-c4ccc(F)cc4)s3)c2)[C@H](O)[C@@H](O)[C@@H]1O [Example 2, (2S,3R,4R,5S,6R)-2-[3-((5-(4-fluorophenyl)thienyl)-2-methylene)-4-methylphenyl)-6-methylthio-tetrahydropyran-3,4,5-triol]	remarkably increased	remarkably increased	0.000172	28.7

Reference: patent publication US8871726B2, “C-aryl glucoside derivative, preparation method therefor, and use thereof” (Shanghai Allist Pharmaceuticals, Inc., priority 2010, dated 2014)
